Data on three compounds can be found in patent publication US5563052A, “Process for producing L-tryptophan” (Kyowa Hakko Kogyo Co., LTD, priority 1988, dated 1996).

What all share (format): biochemical, Corynebacterium glutamicum
Experiment [1] relates to 3-deoxy-D-arabino-hepturosonate-7-phosphate synthase (DS). Kind of experiment: Inhibition of DS activity by phenylalanine and tyrosine. Conditions: DS in the ATCC 13032 transformant carrying pCGDS1. As to the method:
DS activities of Corynebacterium glutamicum ATCC 13032 and the transformant carrying pCGDS1 were determined according to the method of P. R. Sprinavasan, D. B. Sprinson, et al. [J. Biol. Chem., 234, 716 (1959)].

Experiment [2] relates to anthranilate synthase (AS). Kind of experiment: Feedback inhibition of anthranilate synthase (AS) activity by tryptophan. The settings on record: for IC50: read-out: Tryptophan concentration for 50% inhibiting the AS activity. The protocol:
(§1) AS activities of Corynebacterium glutamicum ATCC 13032 and TA108 strains carrying pCtrp1 or pCtrp57 were determined according to the method of H. Hagino, et al. [Agric. Biol. Chem., 39, 323 (1975)], and their PRT activities were determined according to the method of J. Ito and C. Yanofsky [J. Biol. Chem., 97, 734 (1969)]. AS and PRT activities of TA108 strains carrying pCtrp1 or pCtrp57 were more than 10 times as high as those of ATCC 13032 strain. Tryptophan concentrations for 50% inhibiting the AS activities of […] strain, TA108 strain carrying pCtrp1 and TA108 strain carrying pCtrp57 were 0.002 mM, 0.008 mM and 4.0 mM, respectively, while tryptophan concentrations for 50% inhibiting the PRT activities of these three strains were 0.19 mM, 0.19 mM and 4.8 mM, respectively.

In experiment [3] the test system is anthranilate phosphoribosyl transferase (PRT). The experiment can be described thus: Feedback inhibition of anthranilate phosphoribosyl transferase (PRT) activity by tryptophan. Conditions: for IC50: read-out: Tryptophan concentration for 50% inhibiting the PRT activity. The protocol: as §1

Structures are written as SMILES. Read-outs that look alike come from different tables or passages of the source.

Turning to `N[C@@H](Cc1ccccc1)C(=O)O` [phenylalanine], the “Inhibition of DS” value in experiment [1] was “free from inhibition”.
`N[C@@H](Cc1c[nH]c2ccccc12)C(=O)O` [tryptophan]: the “Factor by which AS is less sensitive to tryptophan” value in experiment [2] (AS encoded by pCtrp57 compared with AS encoded by pCtrp1) was “about 500”. Besides, the IC50 in experiment [2] (AS of TA108 strain carrying pCtrp1) came out at 8 µM; in experiment [2] (AS of TA108 strain carrying pCtrp57) it was 4000 µM; in experiment [3] (PRT of TA108 strain carrying pCtrp1), 190 µM; in experiment [3] (PRT of TA108 strain carrying pCtrp57), 4800 µM. The “Factor by which PRT is less sensitive to tryptophan” value in experiment [3] (PRT encoded by pCtrp57 compared with PRT encoded by pCtrp1) is recorded as “about 25”.
As for `N[C@@H](Cc1ccc(O)cc1)C(=O)O` [tyrosine], the “Inhibition of DS” value in experiment [1] is given as “free from inhibition”.
